In patent publication US20150005281A1, “PYRIMIDINE-2,4-DIAMINE DERIVATIVES AS KINASE INHIBITORS” (Cellzome Limited, priority 2011, published 2015):
pIC50: −log10 of the molar value.

Experiments:
Format in all cases: binding
TYK2 = target: T1, TYK2 (Homo sapiens, UniProt P29597); test: Kinobeads assay with immunodetection, TYK2; conditions: for pIC50: Kinobeads assay, mixed Molt4/Ramos lysate, read-out: Inhibition values (IC50) Tyk2
T1 construct: endogenous in cells; host or cells: Molt4 (ATCC CRL-1582) and Ramos (ATCC CRL-1596) cells; mixed lysate 1:2
Method in brief: (§1)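 Mixed Molt4/Ramos lysate (1:2, 10 mg/mL protein) incubated 3 h in the cold with compound (1:3 series from 5 mM DMSO stock) and immobilized aminopyrido-pyrimidine Kinobeads. Bead-bound JAK1, JAK2, JAK3 and TYK2 eluted and quantified by antibody dot blot (Odyssey), IC50 from dose-response curves.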

JAK3 = target: T2, JAK3 (Homo sapiens, UniProt P52333); test: Kinobeads assay with immunodetection, JAK3; conditions: for pIC50: Kinobeads assay, mixed Molt4/Ramos lysate, read-out: Inhibition values (IC50) JAK3
T2 construct: endogenous in cells; host or cells: Molt4 (ATCC CRL-1582) and Ramos (ATCC CRL-1596) cells; mixed lysate 1:2
T2 sequence (P52333 1-1124): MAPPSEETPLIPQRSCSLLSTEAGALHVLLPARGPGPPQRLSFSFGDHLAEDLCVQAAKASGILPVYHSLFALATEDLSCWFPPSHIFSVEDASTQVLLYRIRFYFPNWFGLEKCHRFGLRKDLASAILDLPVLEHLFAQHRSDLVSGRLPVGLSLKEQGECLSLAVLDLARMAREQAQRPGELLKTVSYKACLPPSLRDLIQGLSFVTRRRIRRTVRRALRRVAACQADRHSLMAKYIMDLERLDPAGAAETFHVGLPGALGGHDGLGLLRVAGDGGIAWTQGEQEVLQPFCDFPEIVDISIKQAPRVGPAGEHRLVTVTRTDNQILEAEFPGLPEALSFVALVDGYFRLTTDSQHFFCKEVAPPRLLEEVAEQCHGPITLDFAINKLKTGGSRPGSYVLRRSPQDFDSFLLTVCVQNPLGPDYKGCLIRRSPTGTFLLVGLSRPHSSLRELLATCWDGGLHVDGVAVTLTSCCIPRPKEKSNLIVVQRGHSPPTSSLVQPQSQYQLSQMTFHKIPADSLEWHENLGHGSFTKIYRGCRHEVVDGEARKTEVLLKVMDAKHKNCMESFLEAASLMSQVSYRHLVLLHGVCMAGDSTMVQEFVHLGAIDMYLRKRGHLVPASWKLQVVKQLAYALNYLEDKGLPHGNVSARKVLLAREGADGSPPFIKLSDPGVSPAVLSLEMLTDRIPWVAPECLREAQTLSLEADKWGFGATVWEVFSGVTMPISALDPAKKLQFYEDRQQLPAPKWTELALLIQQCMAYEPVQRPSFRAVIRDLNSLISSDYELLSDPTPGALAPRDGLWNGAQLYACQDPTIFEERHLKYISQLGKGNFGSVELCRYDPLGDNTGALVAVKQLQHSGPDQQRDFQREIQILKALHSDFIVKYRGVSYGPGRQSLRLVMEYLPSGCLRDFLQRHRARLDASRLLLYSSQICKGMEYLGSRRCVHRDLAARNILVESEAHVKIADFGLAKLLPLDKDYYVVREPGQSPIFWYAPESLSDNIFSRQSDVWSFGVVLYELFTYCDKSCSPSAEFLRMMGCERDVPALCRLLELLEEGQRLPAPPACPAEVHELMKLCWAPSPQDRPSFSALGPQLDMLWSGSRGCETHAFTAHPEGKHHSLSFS
Method in brief: as §1

JAK2 = target: T3, JAK2 (Homo sapiens, UniProt O60674); test: Kinobeads assay with immunodetection, JAK2; conditions: mixed Molt4/Ramos lysate, read-out: Inhibition values (IC50) JAK2
T3 construct: endogenous in cells; host or cells: Molt4 (ATCC CRL-1582) and Ramos (ATCC CRL-1596) cells; mixed lysate 1:2
Method in brief: as §1

JAK1 = target: T4, JAK1 (Homo sapiens, UniProt P23458); test: Kinobeads assay with immunodetection, JAK1; conditions: for pIC50: Kinobeads assay, mixed Molt4/Ramos lysate, read-out: Inhibition values (IC50) JAK1
T4 construct: endogenous in cells; host or cells: Molt4 (ATCC CRL-1582) and Ramos (ATCC CRL-1596) cells; mixed lysate 1:2
Method in brief: as §1

T3 sequence (O60674 whole entry): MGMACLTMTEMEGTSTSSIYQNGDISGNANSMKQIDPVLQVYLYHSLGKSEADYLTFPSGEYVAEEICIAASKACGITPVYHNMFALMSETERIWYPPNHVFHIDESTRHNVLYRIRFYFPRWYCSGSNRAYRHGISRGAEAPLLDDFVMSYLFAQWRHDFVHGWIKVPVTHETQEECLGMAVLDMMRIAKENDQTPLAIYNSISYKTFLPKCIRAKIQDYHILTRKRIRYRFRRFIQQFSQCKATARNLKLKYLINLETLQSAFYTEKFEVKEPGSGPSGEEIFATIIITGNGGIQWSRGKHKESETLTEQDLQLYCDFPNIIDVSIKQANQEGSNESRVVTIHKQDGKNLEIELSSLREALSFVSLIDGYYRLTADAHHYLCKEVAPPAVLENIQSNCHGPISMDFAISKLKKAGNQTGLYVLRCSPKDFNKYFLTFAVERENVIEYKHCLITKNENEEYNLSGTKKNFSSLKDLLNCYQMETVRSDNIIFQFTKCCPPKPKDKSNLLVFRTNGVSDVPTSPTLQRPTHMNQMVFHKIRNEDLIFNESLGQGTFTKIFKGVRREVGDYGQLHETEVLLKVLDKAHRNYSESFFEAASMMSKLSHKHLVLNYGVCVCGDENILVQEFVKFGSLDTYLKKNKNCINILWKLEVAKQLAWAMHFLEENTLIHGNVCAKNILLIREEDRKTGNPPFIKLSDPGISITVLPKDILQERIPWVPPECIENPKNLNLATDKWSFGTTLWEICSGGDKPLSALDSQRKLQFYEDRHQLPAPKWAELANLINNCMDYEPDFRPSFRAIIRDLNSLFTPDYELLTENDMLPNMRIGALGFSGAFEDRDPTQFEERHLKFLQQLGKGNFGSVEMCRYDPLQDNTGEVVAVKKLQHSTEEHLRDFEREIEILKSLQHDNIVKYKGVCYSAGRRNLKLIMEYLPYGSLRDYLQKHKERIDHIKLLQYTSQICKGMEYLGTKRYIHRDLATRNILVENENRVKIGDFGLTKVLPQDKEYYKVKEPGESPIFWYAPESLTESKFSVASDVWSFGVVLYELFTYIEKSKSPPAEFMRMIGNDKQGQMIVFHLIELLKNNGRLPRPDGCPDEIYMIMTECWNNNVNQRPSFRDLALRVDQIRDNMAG
T1 sequence (P29597 whole entry): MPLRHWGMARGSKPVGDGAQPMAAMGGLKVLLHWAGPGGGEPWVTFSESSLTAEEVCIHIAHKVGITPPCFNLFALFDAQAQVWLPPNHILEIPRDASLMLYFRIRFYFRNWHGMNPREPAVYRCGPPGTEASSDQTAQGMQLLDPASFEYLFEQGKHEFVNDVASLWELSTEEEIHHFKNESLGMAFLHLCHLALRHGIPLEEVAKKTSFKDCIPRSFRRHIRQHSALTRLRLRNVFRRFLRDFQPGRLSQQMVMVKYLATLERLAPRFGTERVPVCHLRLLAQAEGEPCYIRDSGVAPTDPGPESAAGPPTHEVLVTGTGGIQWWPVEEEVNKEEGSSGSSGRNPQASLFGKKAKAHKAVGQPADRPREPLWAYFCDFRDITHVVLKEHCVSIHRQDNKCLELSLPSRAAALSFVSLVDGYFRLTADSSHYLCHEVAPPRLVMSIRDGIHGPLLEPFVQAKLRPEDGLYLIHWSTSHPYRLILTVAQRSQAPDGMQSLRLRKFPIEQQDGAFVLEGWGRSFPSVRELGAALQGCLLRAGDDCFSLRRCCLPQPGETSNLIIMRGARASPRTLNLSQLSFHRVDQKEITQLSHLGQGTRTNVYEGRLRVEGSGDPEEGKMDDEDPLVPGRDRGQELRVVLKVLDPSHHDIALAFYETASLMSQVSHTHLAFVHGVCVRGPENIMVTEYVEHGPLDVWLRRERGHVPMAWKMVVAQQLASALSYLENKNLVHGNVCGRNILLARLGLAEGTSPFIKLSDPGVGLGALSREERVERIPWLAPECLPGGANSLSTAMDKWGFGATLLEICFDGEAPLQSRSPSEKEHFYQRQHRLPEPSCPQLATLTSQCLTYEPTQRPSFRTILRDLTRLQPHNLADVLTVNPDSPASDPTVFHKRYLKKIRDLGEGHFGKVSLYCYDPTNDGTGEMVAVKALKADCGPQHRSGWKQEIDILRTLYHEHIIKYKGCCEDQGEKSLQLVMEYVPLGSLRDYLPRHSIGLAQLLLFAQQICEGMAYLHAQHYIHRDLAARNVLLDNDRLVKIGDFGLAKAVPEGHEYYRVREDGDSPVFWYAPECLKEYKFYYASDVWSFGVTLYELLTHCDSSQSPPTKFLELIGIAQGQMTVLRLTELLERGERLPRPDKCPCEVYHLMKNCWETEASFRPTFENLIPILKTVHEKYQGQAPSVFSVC
T4 sequence (P23458 whole entry): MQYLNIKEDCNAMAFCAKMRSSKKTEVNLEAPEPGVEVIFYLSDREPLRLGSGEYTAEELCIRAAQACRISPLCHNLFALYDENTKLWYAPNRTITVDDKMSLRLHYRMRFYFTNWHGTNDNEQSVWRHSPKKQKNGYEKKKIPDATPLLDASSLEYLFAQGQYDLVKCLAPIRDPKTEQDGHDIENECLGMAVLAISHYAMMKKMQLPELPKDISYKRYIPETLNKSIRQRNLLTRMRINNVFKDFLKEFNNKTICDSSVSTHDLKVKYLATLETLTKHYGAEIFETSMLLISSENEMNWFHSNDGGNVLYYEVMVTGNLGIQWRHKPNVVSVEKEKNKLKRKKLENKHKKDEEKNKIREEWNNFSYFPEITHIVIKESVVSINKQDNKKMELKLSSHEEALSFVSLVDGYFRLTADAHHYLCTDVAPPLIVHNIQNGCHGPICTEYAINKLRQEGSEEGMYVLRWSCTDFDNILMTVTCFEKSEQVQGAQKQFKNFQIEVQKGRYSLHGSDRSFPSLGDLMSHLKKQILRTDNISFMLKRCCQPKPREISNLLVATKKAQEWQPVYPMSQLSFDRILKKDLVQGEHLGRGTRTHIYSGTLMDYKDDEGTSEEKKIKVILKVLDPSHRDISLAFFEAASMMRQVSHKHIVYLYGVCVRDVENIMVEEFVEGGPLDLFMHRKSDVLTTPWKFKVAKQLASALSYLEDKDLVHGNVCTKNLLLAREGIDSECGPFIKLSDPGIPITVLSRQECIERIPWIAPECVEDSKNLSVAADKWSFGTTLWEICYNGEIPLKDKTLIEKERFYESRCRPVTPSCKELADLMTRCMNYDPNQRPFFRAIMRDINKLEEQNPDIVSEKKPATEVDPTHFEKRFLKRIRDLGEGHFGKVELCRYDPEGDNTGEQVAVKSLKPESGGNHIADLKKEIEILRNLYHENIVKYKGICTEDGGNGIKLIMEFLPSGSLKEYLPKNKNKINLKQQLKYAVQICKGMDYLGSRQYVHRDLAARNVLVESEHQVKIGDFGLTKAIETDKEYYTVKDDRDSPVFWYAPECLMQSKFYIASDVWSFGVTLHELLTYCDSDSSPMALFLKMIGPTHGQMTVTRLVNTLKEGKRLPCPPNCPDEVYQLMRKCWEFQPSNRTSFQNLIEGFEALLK

Compound	pIC50 (TYK2)	pIC50 (JAK3)	pIC50 (JAK2)	Selectivity ratio over JAK2, JAK1 (JAK1)	pIC50 (JAK1)	Selectivity ratio over JAK2, JAK3 (JAK3)	Selectivity ratio over JAK2, Tyk2 (TYK2)
Cc1cnc(Nc2cnn(C)c2)nc1NC[C@@H]1C[C@H](F)CN1CC#N [Example 102, 2-((2S,4S)-4-fluoro-2-(((5-methyl-2-((1-methyl-1H-pyrazol-4-yl)amino)pyrimidin-4-yl)amino)methyl)pyrrolidin-1-yl)acetonitrile]	6.00 to 7.00	6.00 to 7.00	5.00 to 6.00	JAK1 = 16	> 7.00		
Cn1cc(Nc2ncc(Cl)c(NCC3COCCN3CCS(C)(=O)=O)n2)cn1 (centres unmarked) [Example 87, 5-chloro-N^2-(1-methyl-1H-pyrazol-4-yl)-N^4-((4-(2-(methylsulfonyl)ethyl)morpholin-3-yl)methyl)pyrimidine-2,4-diamine]	6.00 to 7.00	> 7.00	5.00 to 6.00		6.00 to 7.00	JAK3 = 33	
Cn1cc(Nc2ncc(Cl)c(NC[C@H]3CCCN3C(=O)CCC#N)n2)cn1 [Example 86, (R)-4-(2-(((5-chloro-2-((1-methyl-1H-pyrazol-4-yl)amino)pyrimidin-4-yl)amino)methyl)pyrrolidin-1-yl)-4-oxobutanenitrile]	> 7.00	> 7.00	6.00 to 7.00		> 7.00		Tyk2 = 33
Cn1cc(Nc2ncc(Cl)c(NC[C@@H]3CCCN3C(=O)CCC#N)n2)cn1 [Example 92, (S)-4-(2-(((5-chloro-2-((1-methyl-1H-pyrazol-4-yl)amino)pyrimidin-4-yl)amino)methyl)pyrrolidin-1-yl)-4-oxobutanenitrile]	> 7.00	> 7.00	6.00 to 7.00	JAK1 = 30	> 7.00		
Cn1cc(Nc2ncc(Cl)c(NC[C@@H]3CCN(S(C)(=O)=O)C3)n2)cn1 [Example 30, (S)-5-chloro-N^2-(1-methyl-1H-pyrazol-4-yl)-N^4-((1-(methylsulfonyl)pyrrolidin-3-yl)methyl)pyrimidine-2,4-diamine]	6.00 to 7.00	6.00 to 7.00	5.00 to 6.00		5.00 to 6.00		Tyk2 = 9
CC(=O)N1CC[C@H](CNc2nc(Nc3cnn(CCO)c3)ncc2Cl)C1 [Example 21, (R)-1-(3-(((5-chloro-2-((1-(2-hydroxyethyl)-1H-pyrazol-4-yl)amino)pyrimidin-4-yl)amino)methyl)pyrrolidin-1-yl)ethanone]	> 7.00	6.00 to 7.00	5.00 to 6.00	JAK1 = 78	> 7.00		
C=CC(=O)N1CCC[C@@H]1CNc1nc(Nc2cnn(CCO)c2)ncc1Cl [Example 4, (R)-1-(2-(((5-chloro-2-((1-(2-hydroxyethyl)-1H-pyrazol-4-yl)amino)pyrimidin-4-yl)amino)methyl)pyrrolidin-1-yl)prop-2-en-1-one]	> 7.00	6.00 to 7.00	6.00 to 7.00		> 7.00		Tyk2 = 8
CC(=O)N1CCCC[C@H]1CNc1nc(Nc2cnn(C)c2)ncc1Cl [Example 32, (S)-1-(2-(((5-chloro-2-((1-methyl-1H-pyrazol-4-yl)amino)pyrimidin-4-yl)amino)methyl)piperidin-1-yl)ethanone]	5.00 to 6.00	5.00 to 6.00	< 5.00		5.00 to 6.00		
CS(=O)(=O)N1CC[C@H](CNc2nc(Nc3cnn(CCO)c3)ncc2Cl)C1 [Example 85, (R)-2-(4-((5-chloro-4-(((1-(methylsulfonyl)pyrrolidin-3-yl)methyl)amino)pyrimidin-2-yl)amino)-1H-pyrazol-1-yl)ethanol]	> 7.00	6.00 to 7.00	6.00 to 7.00	JAK1 = 27	> 7.00		
C=CS(=O)(=O)N1CC[C@H](CNc2nc(Nc3cnn(C)c3)ncc2Cl)C1 [Example 25, (R)-5-chloro-N^2-(1-methyl-1H-pyrazol-4-yl)-N^4-((1-(vinylsulfonyl)pyrrolidin-3-yl)methyl)pyrimidine-2,4-diamine]	6.00 to 7.00	> 7.00	< 5.00		6.00 to 7.00	JAK3 = 556	
Cn1cc(Nc2ncc(Cl)c(NC[C@@H]3C[C@H](F)CN3CCC#N)n2)cn1 [Example 90, 3-((2S,4S)-2-(((5-chloro-2-((1-methyl-1H-pyrazol-4-yl)amino)pyrimidin-4-yl)amino)methyl)-4-fluoropyrrolidin-1-yl)propanenitrile]	> 7.00	> 7.00	6.00 to 7.00	JAK1 = 23	> 7.00		
CC(=O)N1CCCC[C@@H]1CNc1nc(Nc2cnn(CCO)c2)ncc1Cl [Example 40, (R)-1-(2-(((5-chloro-2-((1-(2-hydroxyethyl)-1H-pyrazol-4-yl)amino)pyrimidin-4-yl)amino)methyl)piperidin-1-yl)ethanone]	> 7.00	> 7.00	6.00 to 7.00		6.00 to 7.00		Tyk2 = 10

Results, then the compound that gave them:

pIC50 (TYK2)	pIC50 (JAK3)	pIC50 (JAK2)	Selectivity ratio over JAK2, JAK1 (JAK1)	pIC50 (JAK1)	Selectivity ratio over JAK2, JAK3 (JAK3)	Selectivity ratio over JAK2, Tyk2 (TYK2)	Compound
> 7.00	6.00 to 7.00	6.00 to 7.00	JAK1 = 143	> 7.00			Cc1cnc(Nc2cnn(CC(F)F)c2)nc1NC[C@H]1CCN(C(=O)CCC#N)C1 [Example 130, (R)-4-(3-(((2-((1-(2,2-difluoroethyl)-1H-pyrazol-4-yl)amino)-5-methylpyrimidin-4-yl)amino)methyl)pyrrolidin-1-yl)-4-oxobutanenitrile]
> 7.00	6.00 to 7.00	6.00 to 7.00		> 7.00		Tyk2 = 69	Cc1cnc(Nc2cnn(C)c2)nc1NC[C@H]1CCCN1C(=O)CC#N [Example 109, (R)-3-(2-(((5-methyl-2-((1-methyl-1H-pyrazol-4-yl)amino)pyrimidin-4-yl)amino)methyl)pyrrolidin-1-yl)-3-oxopropanenitrile]
6.00 to 7.00	6.00 to 7.00	5.00 to 6.00	JAK1 = 77	> 7.00			Cc1cnc(Nc2cnn(CC(F)F)c2)nc1NC[C@H]1CCN(CCC#N)C1 [Example 128, (R)-3-(3-(((2-((1-(2,2-difluoroethyl)-1H-pyrazol-4-yl)amino)-5-methylpyrimidin-4-yl)amino)methyl)pyrrolidin-1-yl)propanenitrile]
> 7.00	> 7.00	> 7.00	JAK1 = 19	> 7.00			Cn1cc(Nc2ncc(Cl)c(NC[C@@H]3C[C@H](F)CN3CCCC#N)n2)cn1 [Example 133, 4-((2S,4S)-2-(((5-chloro-2-((1-methyl-1H-pyrazol-4-yl)amino)pyrimidin-4-yl)amino)methyl)-4-fluoropyrrolidin-1-yl)butanenitrile]
> 7.00	> 7.00	6.00 to 7.00		> 7.00	JAK3 = 23		Cn1cc(Nc2ncc(Cl)c(NC[C@H]3CCCN(C(=O)CCC#N)C3)n2)cn1 [Example 138, (R)-4-(3-(((5-chloro-2-((1-methyl-1H-pyrazol-4-yl)amino)pyrimidin-4-yl)amino)methyl)piperidin-1-yl)-4-oxobutanenitrile]
> 7.00	> 7.00	6.00 to 7.00		> 7.00		Tyk2 = 68	Cn1cc(Nc2ncc(Cl)c(NC[C@H]3CCCN3C3CCS(=O)(=O)C3)n2)cn1 (stereo partly drawn) [Example 115, 3-((R)-2-(((5-chloro-2-((1-methyl-1H-pyrazol-4-yl)amino)pyrimidin-4-yl)amino)methyl)pyrrolidin-1-yl)tetrahydrothiophene 1,1-dioxide]
